Assay results taken from patent publication US9475789B2, “Use of polyenylpyrrole derivatives for treating inflammation” (WELLHEAD BIOLOGICAL TECHNOLOGY CORP., priority 2014, dated 2016).
“Also recorded” adds a separate entry of the source.

How the values were obtained:
iNOS = test: Western blot of iNOS protein in LPS-activated RAW 264.7 macrophages; format: cell-based, murine; settings: LPS-activated RAW 264.7, compared with vehicle
Protocol: In (A) and (C), cells (5×10^5/ml) were incubated with polyenylpyrrole derivatives or DMSO (vehicle) for 30 min followed by stimulating with LPS (1 μg/ml) for 24 h, then NO (A), IL-6 and TNF-α (C) concentration in culture medium were assayed by Griess reaction and ELISA, respectively. In (B), cells (5×10^5/ml) were pretreated with polyenylpyrrole derivatives or DMSO for 30 min followed by stimulating with LPS (1 μg/ml) for 24 h, then the protein expression of iNOS and COX-2 were assayed by Western blot.
(§1) Whole cell lysates were separated by SDS-PAGE and electrotransferred to a PVDF membrane. The membranes were incubated in blocking solution—5% nonfat milk in phosphate buffered saline with 0.1% Tween 20—at room temperature for 1 h. Each membrane was incubated with a specific primary antibody at room temperature for 2 h. After washing three times in PBS with 0.1% Tween 20, the membrane was incubated with an HRP-conjugated secondary antibody directed against the primary antibody. The membrane was developed by an enhanced chemiluminescence Western blot detection system.

IL-6 [1] = test: IL-6 ELISA, RAW 264.7 macrophages; format: cell-based, murine
Protocol: (§2) The effects of tested samples on IL-1β, TNF-α and IL-6 production were measured by ELISA according to the manufacturer's instruction. In brief, 50 μl of biotinylated antibody reagent and 50 μl of supernatant were added to an anti-mouse IL-1β, TNF-α and IL-6 precoated stripwell plate, and incubated at room temperature for 2 h. After washing the plate three times with washing buffer, 100 μl of diluted streptavidin-HRP concentrate was added to each well and incubated at room temperature for 30 min. The washing process was repeated; then 100 μl of a premixed tetramethylbenzidine substrate solution was added to each well and developed at room temperature in the dark for 30 min. Following the addition of 100 μl of stop solution to each well to stop the reaction, the absorbance of the plate was measured by a microplate reader at 450 nm wavelength.

IL-6 [2] = test: IL-6 ELISA, LPS-activated J774A.1 macrophages; format: cell-based, murine; settings: J774A.1 cells, LPS 1 μg/ml 24 h
Protocol: (A) J774A.1 macrophages (4×10^5/ml), (B) peritoneal macrophages (4×10^5/ml), and (C) JAWSII dendritic cells (4×10^5/ml) were incubated with compound 1h or DMSO for 30 min followed by stimulating with LPS (1 μg/ml) for 24 h, then IL-6 and TNF-α concentration in culture medium were assayed by ELISA. The data are expressed as the mean±SD for three separate experiments. *, **, and *** indicate a significant difference at the level of p<0.05, p<0.01, p<0.001 respectively compared to LPS group.
as §2

IL-6 [3] = test: IL-6 ELISA, LPS-primed ATP-stimulated J774A.1 macrophages; format: cell-based, mouse; settings: LPS-primed J774A.1; compound 30 min before ATP stimulation
Protocol: (A) J774A.1 macrophages (1×10^6/ml) and (B) peritoneal macrophages (1×10^5/ml) were incubated with compound 1h for 30 min followed by LPS (1 μg/ml) stimulating for 5.5 h, then the cells were stimulated with ATP (5 mM) for an additional 30 min. The IL-1β in the culture medium was measured by ELISA and the expression of active caspase-1 (p10) was measured by Western blot. In (C) and (D), J774A.1 macrophages (1×10^6/ml) were incubated with LPS (1 μg/ml) for 5.5 h, then cells were incubated with compound 1h for 30 min followed by stimulating with ATP (5 mM) for an additional 30 min. The IL-1β and IL-6 in the culture medium were measured by ELISA and the expression of active caspase-1 (p10) was measured by Western blot. In (E), J774A.1 macrophages (1×10^6/ml) were incubated with compound 1h for 30 min followed by LPS (1 μg/ml) stimulating for 6 h. The expression of NLRP3 and proIL-1β were measured by Western blot.
The effects of tested samples on IL-1β, TNF-α and IL-6 production were measured by ELISA according to the manufacturer's instruction. […] Following the addition of 100 μl of stop solution to each well to stop the reaction, the absorbance of the plate was measured by a microplate reader at 450 nm wavelength.

ERK1/2, JNK1/2, p38 = test: Western blot of MAPK phosphorylation, LPS-activated J774A.1 macrophages; format: cell-based, murine; settings: LPS-activated J774A.1, LPS 20 min
Protocol: In (A), RAW 264.7 macrophages (5×10^5/ml) were incubated with compound 1h (20 μM), N-acetyl cysteine (NAC; 10 mM) or DMSO (vehicle) for 30 min followed by LPS (1 μg/ml) stimulating for the indicated time, then ROS levels were measured by detection of the fluorescence intensity of the fluorophore carboxyl-DCF and expressed relative to those at time zero. In (B), RAW 264.7 macrophages (5×10^5/ml) were incubated with compound 1h (20 μM) or DMSO for 30 min followed by LPS (1 μg/ml) stimulating for 0-60 min, then the phosphorylation levels of ERK1/2, JNK1/2, p38 were analyzed by Western blot. In (C), J774A.1 macrophages (5×10^5/ml) were incubated with compound 1h or DMSO for 30 min followed by LPS (1 μg/ml) stimulating for 20 min, then the phosphorylation levels of ERK1/2, JNK1/2, p38 were analyzed by Western blot.
as §1

NF-κB p65 = NF-κB p65 nuclear translocation ELISA, J774A.1 macrophages; format: cell-based, murine; settings: compound 1h 10-40 μM, LPS 20 min
Protocol: (A) RAW 264.7 macrophages (5×10^5/ml) or (B) J774A.1 macrophages (5×10^5/ml) were incubated with compound 1h or DMSO for 30 min followed by LPS (1 μg/ml) stimulating for 20 min, then the phosphorylation levels of IKK-α and IκB-α and total IκB-α protein level were analyzed by Western blot. (C) RAW 264.7 macrophages (5×10^5/ml) or (D) J774A.1 macrophages (5×10^5/ml) were incubated with compound 1h (10-40 μM) or DMSO for 30 min followed by LPS (1 μg/ml) stimulating for 20 min, then the nuclear translocation of NF-κB were analyzed by ELISA. (E) RAW-Blue™ cells (5×10^5/ml) were incubated with compound 1h (2.5-40 μM) or DMSO for 30 min followed by LPS (1 μg/ml) stimulating for 24 h, then the SEAP activity was measured by QUANTI-Blue™. […] In (C), (D), and (E), the data are expressed as the mean±SD for three separate experiments. *, **, and *** indicate a significant difference at the level of p<0.05, p<0.01, and p<0.001 respectively compared to LPS group.
Nuclear protein from RAW 264.7 and J774A.1 cells were extracted using a Nuclear Extract Kit (Active Motif) according to the manufacturer's instructions and nuclear NF-κB p65 activation quantified using an ELISA-based TransAM NF-κB kit (Active Motif, Tokyo, Japan) according to the manufacturer's protocol by reading the absorbance with a microplate absorbance reader (Bio-Rad Laboratories, Inc) at 450 nm with a reference wavelength of 655 nm.

O=c1cc(O)cc(/C=C/C=C/C=C/C=C/c2[nH]ccc2Cl)o1 [Compound 1h]
expression of iNOS protein (iNOS): decreased production; also recorded: reduced the expression of iNOS protein | relative potency in decreasing IL-6 secretion (IL-6 [1]; LPS-activated RAW 264.7): more potent than 1i and 1n | secretion of IL-6 (IL-6 [1]; LPS-activated RAW 264.7, LPS 1 μg/ml 24 h): decreased production; also recorded: decreased the secretion of IL-6 by LPS-activated RAW 264.7 macrophages in a dose-dependent manner | background level of IL-6 (IL-6 [1]; compound alone, no LPS, data not shown): did not alter | secretion of IL-6 (IL-6 [2]): reduced | IL-6 secretion (IL-6 [3]): no significant effect | phosphorylation levels of ERK1/2, JNK1/2, p38 (ERK1/2, JNK1/2, p38): confirmed | NF-κB nuclear translocation (NF-κB p65): inhibited NF-κB nuclear translocation
